Data on 11 compounds can be found in US9975885B2, “Broad-spectrum non-covalent coronavirus protease inhibitors” (priority 2016, dated 2018).

Experiment [1] relates to Ten CoV 3CL^pro's (FIPV-, PEDV-, NL63-, HKU1-, OC43-, SARS-, HKU4-, HKU5-, HKU9-, IBV-3CL^pro). Type of experiment: biochemical, coronaviruses (α-, β-, γ-CoV).
The next experiment has as its target HKU5-3CL^pro (Bat coronavirus HKU5 (BtCoV) (BtCoV/HKU5/2004), UniProt P0C6W4). The experiment is classed as biochemical.
A further experiment addresses FIPV-3CL^pro (Feline coronavirus (strain FIPV WSU-79/1146) (FCoV), UniProt Q98VG9). Kind of experiment: biochemical.
The next experiment deals with PEDV-3CL^pro (Porcine epidemic diarrhea virus (strain CV777) (PEDV), UniProt P0C6Y4). Nature of the experiment: biochemical.
Chain of PEDV-3CL^pro (P0C6Y4 2998-3299 limits assumed): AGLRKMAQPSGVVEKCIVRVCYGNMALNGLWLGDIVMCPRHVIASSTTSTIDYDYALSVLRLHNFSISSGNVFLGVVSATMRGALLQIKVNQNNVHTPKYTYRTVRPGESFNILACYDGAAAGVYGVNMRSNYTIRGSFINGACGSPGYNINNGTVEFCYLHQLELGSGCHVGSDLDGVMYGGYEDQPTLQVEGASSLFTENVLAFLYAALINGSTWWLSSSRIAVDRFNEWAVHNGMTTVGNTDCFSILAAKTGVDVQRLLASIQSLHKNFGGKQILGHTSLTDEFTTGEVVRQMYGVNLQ
Another experiment concerns the target SARS-3CL^pro (Severe acute respiratory syndrome coronavirus (SARS-CoV), UniProt P0C6X7). The experiment is classed as biochemical.
A further experiment has as its target HKU4-3CL^pro (Bat coronavirus HKU4 (BtCoV) (BtCoV/HKU4/2004), UniProt P0C6W3). Type of experiment: biochemical.
The next experiment addresses HKU1-3CL^pro (Human coronavirus HKU1 (isolate N1) (HCoV-HKU1), UniProt P0C6X2). Nature of the experiment: biochemical.
In another experiment the target is NL63-3CL^pro (Human coronavirus NL63 (HCoV-NL63), UniProt P0C6X5). Nature of the experiment: biochemical.
Chain of NL63-3CL^pro (P0C6X5 2940-3242 limits assumed): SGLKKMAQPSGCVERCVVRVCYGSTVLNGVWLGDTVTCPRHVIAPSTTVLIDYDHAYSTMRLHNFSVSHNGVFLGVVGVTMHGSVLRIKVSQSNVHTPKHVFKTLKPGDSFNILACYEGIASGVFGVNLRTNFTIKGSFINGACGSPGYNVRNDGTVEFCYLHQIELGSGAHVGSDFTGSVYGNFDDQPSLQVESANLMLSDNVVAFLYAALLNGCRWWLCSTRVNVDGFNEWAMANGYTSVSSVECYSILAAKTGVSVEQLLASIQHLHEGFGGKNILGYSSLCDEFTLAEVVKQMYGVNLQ
In the next experiment the target is OC43-3CL^pro (Human coronavirus OC43 (HCoV-OC43), UniProt P0C6X6). Type of experiment: biochemical.
Chain of OC43-3CL^pro (P0C6X6 3247-3549 limits assumed): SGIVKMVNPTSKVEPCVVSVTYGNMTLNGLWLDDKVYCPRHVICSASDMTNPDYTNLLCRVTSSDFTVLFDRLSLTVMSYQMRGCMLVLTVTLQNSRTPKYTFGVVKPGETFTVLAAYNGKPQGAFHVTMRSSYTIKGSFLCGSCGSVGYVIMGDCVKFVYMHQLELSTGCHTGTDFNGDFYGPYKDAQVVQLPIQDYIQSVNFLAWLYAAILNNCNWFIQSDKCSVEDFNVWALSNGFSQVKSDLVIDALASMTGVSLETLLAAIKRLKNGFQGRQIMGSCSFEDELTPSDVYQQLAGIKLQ
In another experiment the target is HKU9-3CL^pro (Bat coronavirus HKU9 (BtCoV) (BtCoV/HKU9), UniProt P0C6W5). The experiment is classed as biochemical.
Chain of HKU9-3CL^pro (P0C6W5 3104-3409 limits assumed): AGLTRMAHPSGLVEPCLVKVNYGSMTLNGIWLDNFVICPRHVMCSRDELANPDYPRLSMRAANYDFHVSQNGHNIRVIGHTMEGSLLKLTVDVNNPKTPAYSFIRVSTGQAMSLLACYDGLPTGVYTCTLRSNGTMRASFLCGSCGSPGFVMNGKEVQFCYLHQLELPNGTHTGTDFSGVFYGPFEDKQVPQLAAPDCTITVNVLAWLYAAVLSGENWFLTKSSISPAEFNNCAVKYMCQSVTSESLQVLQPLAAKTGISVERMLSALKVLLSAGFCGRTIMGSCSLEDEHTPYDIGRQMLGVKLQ

Marks after values point to notes of the source that are not given here.

Chain of HKU1-3CL^pro (P0C6X2 3335-3637 limits assumed): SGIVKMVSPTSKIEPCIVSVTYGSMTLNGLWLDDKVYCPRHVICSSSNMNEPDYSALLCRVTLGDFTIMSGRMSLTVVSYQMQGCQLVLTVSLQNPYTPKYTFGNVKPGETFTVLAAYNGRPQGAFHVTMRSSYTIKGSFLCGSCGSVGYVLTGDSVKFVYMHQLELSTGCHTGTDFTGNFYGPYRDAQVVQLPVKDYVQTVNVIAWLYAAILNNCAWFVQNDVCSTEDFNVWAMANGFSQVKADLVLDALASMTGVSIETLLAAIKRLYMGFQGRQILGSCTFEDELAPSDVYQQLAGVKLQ
Chain of FIPV-3CL^pro (Q98VG9 2904-3205 limits assumed): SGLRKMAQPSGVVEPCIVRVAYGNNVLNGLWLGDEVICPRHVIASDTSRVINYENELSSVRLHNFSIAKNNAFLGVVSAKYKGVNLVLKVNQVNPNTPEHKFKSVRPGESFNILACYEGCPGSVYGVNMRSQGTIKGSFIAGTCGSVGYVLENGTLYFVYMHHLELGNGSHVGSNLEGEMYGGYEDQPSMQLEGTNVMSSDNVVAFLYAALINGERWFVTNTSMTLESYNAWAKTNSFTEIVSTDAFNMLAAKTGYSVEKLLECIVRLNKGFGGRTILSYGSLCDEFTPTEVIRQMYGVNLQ
Chain of HKU4-3CL^pro (P0C6W3 3292-3597 limits assumed): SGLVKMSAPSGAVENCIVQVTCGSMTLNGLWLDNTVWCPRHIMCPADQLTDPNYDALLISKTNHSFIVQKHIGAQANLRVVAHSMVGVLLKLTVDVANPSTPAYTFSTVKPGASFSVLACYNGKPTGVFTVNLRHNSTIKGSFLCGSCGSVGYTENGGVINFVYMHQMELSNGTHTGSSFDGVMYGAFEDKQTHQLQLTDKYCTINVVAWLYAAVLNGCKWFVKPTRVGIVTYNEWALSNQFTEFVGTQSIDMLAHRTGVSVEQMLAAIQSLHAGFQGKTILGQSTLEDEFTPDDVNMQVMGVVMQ
Chain of HKU5-3CL^pro (P0C6W4 3339-3644 limits assumed): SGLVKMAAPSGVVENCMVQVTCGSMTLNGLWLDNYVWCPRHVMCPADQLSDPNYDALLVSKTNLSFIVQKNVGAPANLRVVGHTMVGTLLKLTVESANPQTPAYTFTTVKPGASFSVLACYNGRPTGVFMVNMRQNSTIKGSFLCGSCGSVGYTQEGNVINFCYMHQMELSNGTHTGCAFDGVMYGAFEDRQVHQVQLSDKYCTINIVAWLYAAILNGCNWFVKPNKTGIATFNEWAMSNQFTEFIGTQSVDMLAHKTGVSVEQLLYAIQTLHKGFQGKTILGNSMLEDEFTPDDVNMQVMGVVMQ

The term IC50 denotes the concentration needed to halve the response being measured. As for `CC(C)(C)NC(=O)C(c1cccnc1)N(C(=O)c1c[nH]cn1)c1ccc(C2CCCC2)cc1` (centres unmarked) [Compound 41, N-(2-(tert-butylamino)-2-oxo-1-(pyridin-3-yl)ethyl)-N-(4-cyclopentylphenyl)-1H-imidazole-4-carboxamide], in [1], the “Gini Coefficient” value stood at 0.26. Also, the “Score (performance metric score)” value in experiment [1] was found to be 6.2. Moreover, the IC50 against HKU5-3CL^pro was 19100 ± 2000 nM; on FIPV-3CL^pro it was 18.7 ± 2 µM; against PEDV-3CL^pro, 10.5 ± 0.9 µM; on SARS-3CL^pro it was 5.3 ± 0.5 µM; against HKU4-3CL^pro, 19800 ± 1500 nM; on HKU1-3CL^pro, 5 ± 0.6 µM.

As to `CC(C)(C)c1ccc(N(C(=O)c2c[nH]cn2)C(C(=O)NC2CC2)c2cccnc2)cc1` (centres unmarked) [Compound 46, N-(4-(tert-butyl)phenyl)-N-(2-(cyclopropylamino)-2-oxo-1-(pyridin-3-yl)ethyl)-1H-imidazole-4-carboxamide], the “Score (performance metric score)” value in [1] turned out to be 4.0. The concentration for half-maximal inhibition (IC50) on HKU5-3CL^pro stood at 8900 ± 900 nM; on NL63-3CL^pro it was 16.8 ± 2.9 µM; against FIPV-3CL^pro it was 43.9 ± 6.1 µM; against OC43-3CL^pro it was 24.5 ± 4.3 µM; against PEDV-3CL^pro, 4.3 ± 0.4 µM; on SARS-3CL^pro it was 11.8 ± 1.6 µM. Moreover, the IC50 was 11200 ± 1000 nM on HKU4-3CL^pro and 7.8 ± 1.2 µM at HKU1-3CL^pro.

For the compound `O=C(Nc1ccc(N(C(=O)Cn2nnc3ccccc32)C(C(=O)NC2CC2)c2ccsc2)cc1)C1CC1` (centres unmarked) [Compound 32, N-(4-(2-(1H-benzo[d][1,2,3]triazol-1-yl)-N-(2-(cyclopropylamino)-2-oxo-1-(thiophen-3-yl)ethyl)acetamido)phenyl)cyclopropanecarboxamide], the “Score (performance metric score)” value in experiment [1] is given as 5.0*. Also, the “number of 3CL^pro's inhibited” value in [1] is reported as “six”. Further, the IC50 came out at 900 ± 100 nM at HKU5-3CL^pro; 14.8 ± 1.2 µM against NL63-3CL^pro; 2.8 ± 0.2 µM on OC43-3CL^pro; 8.2 ± 1.5 µM against SARS-3CL^pro; 800 ± 100 nM at HKU4-3CL^pro; 9.8 ± 1.8 µM at HKU1-3CL^pro.

Turning to `O=C(Nc1ccc(N(C(=O)Cn2nnc3ccccc32)C(C(=O)NC2CCCC2)c2ccsc2)cc1)C1CC1` (centres unmarked) [Compound 33, N-(4-(2-(1H-benzo[d][1,2,3]triazol-1-yl)-N-(2-(cyclopentylamino)-2-oxo-1-(thiophen-3-yl)ethyl)acetamido)phenyl)cyclopropanecarboxamide], in experiment [1], the “Gini Coefficient” value is on record as 0.32. Besides, the “Score (performance metric score)” value in experiment [1] is recorded as 5.7*. Moreover, the IC50 came to 600 ± 100 nM against HKU5-3CL^pro; 3.7 ± 0.6 µM on NL63-3CL^pro; 7.3 ± 0.8 µM at OC43-3CL^pro; 4.2 ± 0.6 µM on SARS-3CL^pro; 500 ± 50 nM against HKU4-3CL^pro. The “inhibition of HKU1-3CL^pro” value against HKU1-3CL^pro is “not tolerated”.

Take `CC(C)(C)c1ccc(N(C(=O)c2c[nH]cn2)C(C(=O)NC2CCCC2)c2cccnc2)cc1` (centres unmarked) [Compound 47, N-(4-(tert-butyl)phenyl)-N-(2-(cyclopentylamino)-2-oxo-1-(pyridin-3-yl)ethyl)-1H-imidazole-4-carboxamide]: the IC50 amounted to 2500 ± 200 nM on HKU5-3CL^pro; 6.3 ± 0.5 µM against NL63-3CL^pro; 6.9 ± 0.5 µM at FIPV-3CL^pro; 7.7 ± 0.8 µM against OC43-3CL^pro; 0.7 ± 0.03 µM against PEDV-3CL^pro; 1.7 ± 0.2 µM on SARS-3CL^pro. For the same compound, the half-inhibitory concentration (IC50) against HKU4-3CL^pro was found to be 1900 ± 100 nM; against HKU9-3CL^pro, 6.4 ± 0.5 µM; against HKU1-3CL^pro, 3.4 ± 0.4 µM.

As to `CC(C)(C)NC(=O)C(c1cccnc1)N(C(=O)c1c[nH]cn1)c1ccc(C2CCCCC2)cc1` (centres unmarked) [Compound 42, N-(2-(tert-butylamino)-2-oxo-1-(pyridin-3-yl)ethyl)-N-(4-cyclohexylphenyl)-1H-imidazole-4-carboxamide], the “Gini Coefficient” value in experiment [1] was found to be 0.18. In addition, in [1], the “Score (performance metric score)” value is listed as 6.6. Also, the 50% inhibitory concentration (IC50) is 4300 ± 1000 nM at HKU5-3CL^pro; 39.7 ± 5.7 µM at FIPV-3CL^pro; 63.1 ± 12 µM at OC43-3CL^pro; 26.2 ± 2.4 µM against PEDV-3CL^pro; 6.3 ± 0.5 µM against SARS-3CL^pro; 27000 ± 4100 nM at HKU4-3CL^pro. Also, it took 11.6 ± 1.5 µM to reach half-maximal inhibition on HKU1-3CL^pro (IC50).

`CC(C)(C)NC(=O)C(c1cccnc1)N(C(=O)c1c[nH]cn1)c1ccc(C2CCC2)cc1` (centres unmarked) [Compound 40, N-(2-(tert-butylamino)-2-oxo-1-(pyridin-3-yl)ethyl)-N-(4-cyclobutylphenyl)-1H-imidazole-4-carboxamide]: the “Gini Coefficient” value in experiment [1] is given as 0.16. In addition, in experiment [1], the “Score (performance metric score)” value is given as 3.6. In addition, the “number of 3CL^pro's inhibited” value in experiment [1] is “eight of ten”. Also, the IC50 on HKU5-3CL^pro amounted to 8700 ± 1200 nM; against FIPV-3CL^pro it was 27 ± 3.1 µM; against OC43-3CL^pro it was 13.7 ± 1.3 µM; against PEDV-3CL^pro, 11.2 ± 1.5 µM; at SARS-3CL^pro it was 9.9 ± 1.2 µM; at HKU4-3CL^pro, 9600 ± 700 nM. Moreover, the IC50 against HKU9-3CL^pro turned out to be 18.2 ± 2.2 µM; on HKU1-3CL^pro, 6.6 ± 1.2 µM.

Consider `O=C(Nc1ccc(N(C(=O)Cn2nnc3ccccc32)C(C(=O)NCc2cccnc2)c2ccsc2)cc1)C1CC1` (centres unmarked) [Compound 34, N-(4-(2-(1H-benzo[d][1,2,3]triazol-1-yl)-N-(2-oxo-2-((pyridin-3-ylmethyl)amino)-1-(thiophen-3-yl)ethyl)acetamido)phenyl)cyclopropanecarboxamide], for which the 50% inhibitory concentration (IC50) came to 2100 ± 200 nM against HKU5-3CL^pro; 15.6 ± 1.3 µM against NL63-3CL^pro; 27.5 ± 3.8 µM at FIPV-3CL^pro; 8.9 ± 0.5 µM on OC43-3CL^pro; 9.9 ± 0.9 µM against SARS-3CL^pro; 7.4 ± 1.1 µM against HKU1-3CL^pro.

As to `O=C(Nc1ccc(N(C(=O)Cn2nnc3ccccc32)C(C(=O)NC2CCCCC2)c2ccsc2)cc1)C1CC1` (centres unmarked) [Compound 67, N-(4-(2-(1H-benzo[d][1,2,3]triazol-1-yl)-N-(2-(cyclohexylamino)-2-oxo-1-(thiophen-3-yl)ethyl)acetamido)phenyl)cyclopropanecarboxamide], in experiment [1], the “Gini Coefficient” value is reported as 0.39 and the “Score (performance metric score)” value was 8.3*. Besides, at HKU5-3CL^pro, half-maximal inhibition (IC50) was put at 600 ± 100 nM and the “IC50 HKU5” value is “sub-micromolar”. The “inhibition of NL63-3CL^pro” value at NL63-3CL^pro is “not tolerated”. Besides, the “inhibition of OC43-3CL^pro” value on OC43-3CL^pro is “not tolerated”. In addition, the “inhibition of SARS-3CL^pro” value at SARS-3CL^pro is “not tolerated”. Moreover, at HKU4-3CL^pro, the 50% inhibitory concentration (IC50) is 700 ± 100 nM and the “IC50 HKU4” value is “sub-micromolar”.

For the compound `CC(C)(C)OC(=O)CNC(=O)C(c1ccsc1)N(C(=O)Cn1nnc2ccccc21)c1ccc(NC(=O)C2CC2)cc1` (centres unmarked) [Compound 64, tert-butyl (2-(2-(1H-benzo[d][1,2,3]triazol-1-yl)-N-(4-(cyclopropanecarboxamido)phenyl)acetamido)-2-(thiophen-3-yl)acetyl)glycinate], the “number of 3CL^pro's inhibited” value in [1] was “eight of the ten”. Moreover, the half-maximal inhibitory concentration (IC50) at HKU5-3CL^pro stood at 2000 ± 200 nM; at NL63-3CL^pro, 8.7 ± 0.8 µM; at FIPV-3CL^pro, 11.7 ± 1.2 µM; against OC43-3CL^pro, 4.5 ± 0.3 µM; against PEDV-3CL^pro, 8.7 ± 1.4 µM; against SARS-3CL^pro it was 6.3 ± 0.8 µM. In addition, the IC50 against HKU4-3CL^pro turned out to be 2100 ± 200 nM; against HKU1-3CL^pro it was 6.5 ± 0.9 µM.

One may read the inhibition as the change of the read-out against control, counted positive when it falls. For the compound `CC(C)C(=O)Nc1ccc(N(C(=O)Cn2nnc3ccccc32)C(C(=O)NCc2cccnc2)c2cccc(F)c2)cc1` (centres unmarked) [Compound 6, N-(4-(2-(1H-benzo[d][1,2,3]triazol-1-yl)-N-(1-(3-fluorophenyl)-2-oxo-2-((pyridin-3-ylmethyl)amino)ethyl)acetamido)phenyl)isobutyramide], the IC50 was 2500 ± 200 nM at HKU5-3CL^pro; 13.8 ± 1.1 µM on FIPV-3CL^pro; 10 ± 1.9 µM on OC43-3CL^pro; 8.3 ± 1.2 µM on PEDV-3CL^pro; 5.5 ± 0.7 µM against SARS-3CL^pro; 2000 ± 100 nM against HKU4-3CL^pro. Besides, half-maximal inhibition on HKU1-3CL^pro (IC50) required 6.8 ± 1.9 µM. Also, the inhibition at 100 µM at PEDV-3CL^pro (read-out: inhibition of PEDV-3CL^pro) and on HKU1-3CL^pro (read-out: inhibition of HKU1-3CL^pro) was greater than 50% throughout.
